The values that follow come from US9598448B2, “Osmium (II) arene imino anti-cancer complexes” (University of Warwick, priority 2010, dated 2017).

The subject of experiment [1] is human ovarian A2780 cancer cells. As to the kind of experiment: SRB growth inhibition assay, A2780. The experiment is classed as cell-based. The conditions noted are these: SRB; 24 h exposure, 72 h recovery; read-out: IC50 values for azopyridine complexes against A2780 ovarian cancer cells. The procedure:
The concentrations of the osmium complexes that inhibit 50% of the proliferation of human ovarian A2780 cancer cells were determined by sulforhodamine B test. A2780 cells were seeded in 96-well plate (Falcon) at 5000 cells/well, after the incubation for 48 h, The complexes were solubilised in DMSO (Sigma) to provide 10 mM stocks. The stocks were serially diluted by cell culture media to give concentrations four-fold than the final concentrations for the assay. The dilutions of complexes in cell culture media were added to the 96-well plate with cells in triplicates to achieve the final concentrations. The final DMSO concentration in each well was no more than 1% (v/v). The complexes were removed after 24 h. The cells were washed with Phosphate Buffered Saline once and cell culture media was added 150 μL/well. The cells were recovered for 72 h. The surviving cells were fixed by adding 150 μL/well of 50% (w/v) trichloroacetic acid and incubated for 1 h at 277 K (277 K). The plates were washed with tap water three times and dried under a flow of warm air, 0.4% sulforhodamine B (Sigma) solution 100 μL/well followed by washing with 1% acetic acid five times and dried under a flow of warm air. The dye was dissolved in 10 mM Tris buffer […] The absorbance of each well was obtained by the Multiskan Ascent plate reader (Labsystems) at 540 nm. The absorbance value of SRB in each well is directly proportional to the cell number. Then the absorbance can be plotted against concentration and the IC50 determined by using Origin software.
The cytotoxicity studies were carried out as described previously above.

For the next experiment, the system named is A549 non-small cell lung. Briefly: MTT growth inhibition assay, A549. The experiment is classed as cell-based, human. The settings on record: 96 h. On the procedure: Tumor cell growth inhibition was assessed using the MTT assay.^13 2×10^3 cells were inoculated into a 96-well plate and incubated overnight at 37° C. in a humidified atmosphere containing 5% CO2. Complexes were solubilised in DMSO as above, and then diluted in complete cell culture medium to give a broad range of concentrations. Cisplatin was included in the screen as a comparator. Medium was removed from each well and replaced with complex or control solutions, and the plates then incubated for a further 96 hours. After 96 h culture medium was removed and 200 μL of 0.5 mg mL^−1 MTT solution (Sigma) in complete medium added to each well. Following further 4 h incubation, the solution was removed from each well and 150 μL of DMSO (Sigma) added to solubilise the formazan crystals resulting from MTT conversion. Absorbance values for the resulting solutions were read at 550 nm on a microplate reader and cell survival calculated as the absorbance of treated cells divided by the control. Results were expressed in terms of IC50 values (i.e. concentration of compound required to kill 50% of cells) and all experiments were performed in triplicate.
The following human cancer cell lines were cultured in RPMI 1640 cell culture medium supplemented with 1 mM sodium pyruvate, 2 mM L-glutamine and 10% fetal bovine serum (all from Sigma): A549 non-small cell lung, HCT-116 colon, MCF-7 breast, PC-3 prostate (all from LGC Promochem, Teddington, UK), A2780/cis ovarian (cisplatin-resistant) and RT-112 bladder (both from ECACC, Salisbury, UK).
For orientation: Tetrazolium assays rely on reduction of a dye to a coloured formazan, in cell work by metabolically active cells.

Usually IC50 stands for the midpoint of a concentration-inhibition curve.

Where only a bound is given, the exact number is not on record here.

For the substance “[(η^6-p-cym)Os(Azpy-NMe2)I]PF6 [Complex 6]”, the IC50 in experiment [1] was 200 nM; with A549 non-small cell lung, less than 300 nM.
